pIC50: −log10 of the molar value.
How the values were obtained:
[1] = target: EED (1-441)-His protein (Homo sapiens (Human), UniProt O75530); experiment: EED-H3K27Me3 peptide competition binding assay by AlphaScreen; conditions: EED Alphascreen binding Qualified assay
[2] = system: H3K27 methylation in G401 cell; experiment: ELISA (H3K27 methylation) assay; format: cell-based; conditions: Homo sapiens, G-401, ELISA Qualified assay, 48 h, read-out: (c) IC50
How it was run: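 G401 cells given 3-fold serial dilutions (eight or twelve points, top 20 μM) for 48 h. Lysate ELISA for H3K27 methylation normalized to H3 signal, % inhibition versus DMSO, IC50 from dose-response fit.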

[3] = target: wild type PRC2 (wtPRC2) complex (Homo sapiens (Human), UniProt O75530); experiment: EED LC-MS assay; format: biochemical; conditions: EED LC-MS Qualified assay; read-out: (b) IC50
Chain of wild type PRC2 (wtPRC2) complex (O75530 whole entry): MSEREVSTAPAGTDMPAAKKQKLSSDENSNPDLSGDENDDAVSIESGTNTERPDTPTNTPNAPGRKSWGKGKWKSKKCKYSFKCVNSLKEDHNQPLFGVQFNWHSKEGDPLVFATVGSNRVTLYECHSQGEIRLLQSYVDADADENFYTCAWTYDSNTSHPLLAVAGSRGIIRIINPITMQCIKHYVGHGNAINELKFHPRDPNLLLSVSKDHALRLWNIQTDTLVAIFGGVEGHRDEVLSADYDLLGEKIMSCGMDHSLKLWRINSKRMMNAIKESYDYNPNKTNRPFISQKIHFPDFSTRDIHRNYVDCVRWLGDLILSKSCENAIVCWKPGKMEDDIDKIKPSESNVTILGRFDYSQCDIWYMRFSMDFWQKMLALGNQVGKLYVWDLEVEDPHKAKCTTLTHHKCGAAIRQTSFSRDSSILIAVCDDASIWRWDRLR
Chain of wild type PRC2 (wtPRC2) complex (Q15910 whole entry partner): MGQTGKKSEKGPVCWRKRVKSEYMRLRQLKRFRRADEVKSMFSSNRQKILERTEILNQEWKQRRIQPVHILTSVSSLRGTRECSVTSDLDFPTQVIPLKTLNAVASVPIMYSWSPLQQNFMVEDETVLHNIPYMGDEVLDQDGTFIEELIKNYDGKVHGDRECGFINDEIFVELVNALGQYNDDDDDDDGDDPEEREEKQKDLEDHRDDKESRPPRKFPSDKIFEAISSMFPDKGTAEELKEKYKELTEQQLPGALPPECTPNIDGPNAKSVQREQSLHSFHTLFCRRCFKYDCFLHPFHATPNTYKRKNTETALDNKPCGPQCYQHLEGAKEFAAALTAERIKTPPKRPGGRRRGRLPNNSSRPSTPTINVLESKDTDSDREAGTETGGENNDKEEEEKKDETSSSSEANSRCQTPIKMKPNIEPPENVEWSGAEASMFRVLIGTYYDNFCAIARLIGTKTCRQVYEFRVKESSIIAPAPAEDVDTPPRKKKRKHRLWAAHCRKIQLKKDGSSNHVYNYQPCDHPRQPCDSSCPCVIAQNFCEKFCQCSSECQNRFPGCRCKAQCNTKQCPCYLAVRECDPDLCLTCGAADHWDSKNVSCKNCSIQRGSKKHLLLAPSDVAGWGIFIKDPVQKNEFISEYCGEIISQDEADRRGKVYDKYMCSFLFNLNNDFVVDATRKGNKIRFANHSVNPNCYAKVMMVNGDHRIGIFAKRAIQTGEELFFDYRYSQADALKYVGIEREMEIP
Chain of wild type PRC2 (wtPRC2) complex (Q15022 whole entry partner): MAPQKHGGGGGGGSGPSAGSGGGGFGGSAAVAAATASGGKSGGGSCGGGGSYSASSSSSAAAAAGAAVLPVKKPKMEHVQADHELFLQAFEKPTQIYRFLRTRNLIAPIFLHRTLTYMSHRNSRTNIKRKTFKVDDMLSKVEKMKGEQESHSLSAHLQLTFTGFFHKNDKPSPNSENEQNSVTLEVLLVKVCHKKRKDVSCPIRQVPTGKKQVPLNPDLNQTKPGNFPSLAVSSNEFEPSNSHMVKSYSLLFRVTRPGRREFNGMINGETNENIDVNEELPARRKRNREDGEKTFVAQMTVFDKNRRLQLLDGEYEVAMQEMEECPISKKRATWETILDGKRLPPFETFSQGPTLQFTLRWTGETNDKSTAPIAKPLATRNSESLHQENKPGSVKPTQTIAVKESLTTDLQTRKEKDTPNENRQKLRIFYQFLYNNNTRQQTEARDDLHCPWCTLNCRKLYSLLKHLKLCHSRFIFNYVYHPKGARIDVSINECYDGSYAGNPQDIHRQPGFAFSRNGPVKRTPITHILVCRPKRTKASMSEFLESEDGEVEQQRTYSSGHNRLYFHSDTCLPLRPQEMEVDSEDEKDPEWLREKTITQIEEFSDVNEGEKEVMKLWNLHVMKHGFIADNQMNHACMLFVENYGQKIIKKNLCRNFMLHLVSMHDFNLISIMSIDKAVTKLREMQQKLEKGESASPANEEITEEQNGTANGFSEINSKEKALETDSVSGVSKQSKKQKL
Method: EED LC-MS Assay Representative compounds of the present invention were serially and separately diluted 3-fold in DMSO to obtain a total of eight or twelve concentrations. […] A 6 μL solution of 3 μM of the peptide substrate H3K27Me0 (histone H3[21-44]-biotin) in reaction buffer was added to initiate each reaction. […] The data were then fit to a dose response equation using the program Helios to get the IC50 values of the test compound.

Chain of EED (1-441)-His protein (O75530 whole entry): as the sequence (O75530 whole entry) above

SMILES | pIC50 [1] | pIC50 [2] | pIC50 [3]
CS(=O)(=O)c1ncn2c(NCc3c(F)ccc4c3CCO4)ncc(-c3cccnc3C(F)F)c12 [Example 13, 8-(2-(Difluoromethyl)pyridin-3-yl)-N-((5-fluoro-2,3-dihydrobenzofuran-4-yl)methyl)-1-(methylsulfonyl)imidazo[1,5-c]pyrimidin-5-amine] | 8.43 | 8.64 | 8.11
Cc1ccc(-c2ncn3c(NCc4c(F)ccc5c4CCO5)ncc(-c4cnc(C)nc4C)c23)c(C)n1 [Example 113, 1-(2,6-dimethylpyridin-3-yl)-8-(2,4-dimethylpyrimidin-5-yl)-N-((5-fluoro-2,3-dihydrobenzofuran-4-yl)methyl)imidazo[1,5-c]pyrimidin-5-amine] | 7.82 | 7.27 | 7.41
Cc1ncccc1-c1cnc(NCc2c(F)ccc3c2CCO3)n2cnc(-c3ccccc3)c12 [Example 111, N-((5-fluoro-2,3-dihydrobenzofuran-4-yl)methyl)-8-(2-methylpyridin-3-yl)-1-phenylimidazo[1,5-c]pyrimidin-5-amine] | 8.12 | 7.62 | 8.02
CN1CCN(c2ccc(-c3cnc(NCc4c(F)ccc5c4CCO5)n4cncc34)cn2)CC1 [Example 40, N-((5-fluoro-2,3-dihydrobenzofuran-4-yl)methyl)-8-(6-(4-methylpiperazin-1-yl)pyridin-3-yl)imidazo[1,5-c]pyrimidin-5-amine] | 7.75 | 7.18 | 7.55
Cc1ncccc1-c1cnc(NCc2c(F)ccc3c2CCO3)n2cnc(C#N)c12 [Example 69, 5-(((5-fluoro-2,3-dihydrobenzofuran-4-yl)methyl)amino)-8-(2-methylpyridin-3-yl)imidazo[1,5-c]pyrimidine-1-carbonitrile] | 8.05 | 7.83 | 7.85
N#Cc1ncn2c(NCc3c(F)ccc4c3CCO4)ncc(-c3cccnc3C(F)F)c12 [Example 73, 8-(2-(difluoromethyl)pyridin-3-yl)-5-(((5-fluoro-2,3-dihydrobenzofuran-4-yl)methyl)amino)imidazo[1,5-c]pyrimidine-1-carbonitrile] | 7.63 | 7.26 | 7.25
Cc1cn(-c2cnc(NCc3c(F)ccc4c3CCO4)n3cnc(C#N)c23)cn1 [Example 6, 5-(((5-Fluoro-2,3-dihydrobenzofuran-4-yl)methyl)amino)-8-(4-methyl-1H-imidazol-1-yl)imidazo[1,5-c]pyrimidine-1-carbonitrile] | 8.38 | 8.51 | 7.90
Cc1ncccc1-c1cnc(NCc2c(F)ccc3c2CCO3)n2cnc(CO)c12 [Example 120, (5-(((5-fluoro-2,3-dihydrobenzofuran-4-yl)methyl)amino)-8-(2-methylpyridin-3-yl)imidazo[1,5-c]pyrimidin-1-yl)methanol] | 7.94 | 7.81 | 7.62
Cc1ccc(-c2ncn3c(NCc4c(F)ccc5c4CCO5)ncc(-c4cccnc4C)c23)cn1 [Example 115, N-((5-fluoro-2,3-dihydrobenzofuran-4-yl)methyl)-8-(2-methylpyridin-3-yl)-1-(6-methylpyridin-3-yl)imidazo[1,5-c]pyrimidin-5-amine] | 8.21 | 8.40 | 7.75
Cc1ccc(-c2cnc(NCc3c(F)ccc4c3CCO4)n3cnc(C#N)c23)c(C)n1 [Example 75, 8-(2,6-dimethylpyridin-3-yl)-5-(((5-fluoro-2,3-dihydrobenzofuran-4-yl)methyl)amino)imidazo[1,5-c]pyrimidine-1-carbonitrile] | 8.08 | 7.34 | 7.78

The next lines start with the values.

pIC50 [1] | pIC50 [2] | pIC50 [3] | SMILES
7.94 | 7.23 | 7.71 | CC(C)Oc1ccc(-c2ncn3c(NCc4c(F)ccc5c4CCO5)ncc(-c4ccc(S(C)(=O)=O)cc4)c23)cc1 [Example 117, N-((5-fluoro-2,3-dihydrobenzofuran-4-yl)methyl)-1-(4-isopropoxyphenyl)-8-(4-(methylsulfonyl)phenyl)imidazo[1,5-c]pyrimidin-5-amine]
8.17 | 7.88 | 7.86 | Cc1ncc(-c2cnc(NCc3c(F)ccc4c3CCO4)n3cnc(C#N)c23)c(C)n1 [Example 3, 8-(2,4-dimethylpyrimidin-5-yl)-5-(((5-fluoro-2,3-dihydrobenzofuran-4-yl)methyl)amino)imidazo[1,5-c]pyrimidine-1-carbonitrile]
8.25 | 8.27 | 7.82 | CC(c1ccc(-c2cnc(NCc3c(F)ccc4c3CCO4)n3cnc(C#N)c23)cc1)N1CCCC1 (stereo not drawn) [Example 76, 5-(((5-fluoro-2,3-dihydrobenzofuran-4-yl)methyl)amino)-8-(4-(1-(pyrrolidin-1-yl)ethyl)phenyl)imidazo[1,5-c]pyrimidine-1-carbonitrile]
7.74 | 6.95 | 7.64 | Cc1nn(C)c(C)c1-c1cnc(NCc2c(F)ccc3c2CCO3)n2cncc12 [Example 46, N-((5-fluoro-2,3-dihydrobenzofuran-4-yl)methyl)-8-(1,3,5-trimethyl-1H-pyrazol-4-yl)imidazo[1,5-c]pyrimidin-5-amine]
7.62 | 7.37 | 7.63 | CS(=O)(=O)c1cccc(-c2cnc(NCc3c(F)ccc4c3CCO4)n3cncc23)c1 [Example 27, N-((5-fluoro-2,3-dihydrobenzofuran-4-yl)methyl)-8-(3-(methylsulfonyl)phenyl)imidazo[1,5-c]pyrimidin-5-amine]
7.77 | 7.87 | 7.53 | CC(=O)N1CCN(c2ccc(-c3cnc(NCc4c(F)ccc5c4CCO5)n4cnc(C#N)c34)cn2)CC1 [Example 87, 8-(6-(4-acetylpiperazin-1-yl)pyridin-3-yl)-5-(((5-fluoro-2,3-dihydrobenzofuran-4-yl)methyl)amino)imidazo[1,5-c]pyrimidine-1-carbonitrile]
8.23 | 8.15 | 7.81 | N#Cc1ncn2c(NCc3c(F)ccc4c3CCO4)ncc(-c3cccnc3)c12 [Example 74, 5-(((5-fluoro-2,3-dihydrobenzofuran-4-yl)methyl)amino)-8-(pyridin-3-yl)imidazo[1,5-c]pyrimidine-1-carbonitrile]
8.48 | 7.43 | 7.86 | Fc1ccc2c(c1CNc1ncc(-c3ccc(CN4CCC4)cc3)c3cncn13)CCO2 [Example 55, 8-(4-(azetidin-1-ylmethyl)phenyl)-N-((5-fluoro-2,3-dihydrobenzofuran-4-yl)methyl)imidazo[1,5-c]pyrimidin-5-amine]
8.43 | 7.88 | 8.18 | Cc1cn(-c2cnc(NCc3c(F)ccc4c3CCO4)n3cncc23)cn1 [Example 62, N-((5-fluoro-2,3-dihydrobenzofuran-4-yl)methyl)-8-(4-methyl-1H-imidazol-1-yl)imidazo[1,5-c]pyrimidin-5-amine]
8.29 | 7.75 | 7.79 | N#Cc1ncn2c(NCc3c(F)ccc4c3CCO4)ncc(-c3cccnc3CO)c12 [Example 78, 5-(((5-fluoro-2,3-dihydrobenzofuran-4-yl)methyl)amino)-8-(2-(hydroxymethyl)pyridin-3-yl)imidazo[1,5-c]pyrimidine-1-carbonitrile]

Reference: patent publication US10676479B2, “Imidazolepyridine compounds and uses thereof” (Novartis AG, priority 2016, dated 2020)
